Test results: patent publication US11787839B2, “Targeting α2δ-1-bound glutamate receptors for treating diseases and disorders” (Board of Regents, The University of Texas System, priority 2017, dated 2023)

How the values were obtained:
[1] = tested on: MCAO mice; assay: MCAO ischemic stroke model: neurological deficit and infarct volume; format: in vivo, mouse; details: 90 min MCAO, 24 h reperfusion; gabapentin 100 mg/kg i.p. pre- or posttreatment; peptide 200 μg/kg i.p. twice
Protocol: Gabapentin was administered intraperitoneally (i.p.) either before or after initiating MCAO in separate groups of mice (pretreatment and posttreatment groups). […] Saline at the same volume as the gabapentin was administered i.p. in a vehicle group that also received MCAO.
It was then determined whether the α2δ-1-NMDAR interaction is involved in brain injury and neurological deficits caused by MCAO. In this protocol, MCAO-subjected mice with two injections of α2δ-1Tat peptide or control peptide (both 200 μg/kg, i.p.): one at 15 min before MCAO and another immediately before reperfusion. […] Furthermore, the brain infarct volume was much less in mice treated with α2δ-1Tat peptide than in mice treated with the control peptide (FIG. 22D).
Animal model. All procedures and protocols were approved by the Institutional Animal Care and Use Committee of The University of Texas MD Anderson Cancer Center. Adult male wild-type (WT) and conventional Cacna2d1 knockout (KO) mice (25-30 g, 8-10 weeks of age) were used in the study. MCAO was used in mice as an ischemic stroke model. The neurological deficits of mice subjected to MCAO were evaluated using a modified Longa test on a scale of 0-5. The brain coronal sections were stained using 1% 2,3,5-triphenyltetrazolium chloride (TTC), and the stained sections were captured as digital images and quantified for infarct volume.

[2] = tested on: cleaved caspase-3; assay: MCAO: cleaved caspase-3 protein levels in brain tissues; format: in vivo, mouse; details: MCAO mice; cortex, hippocampus, striatum
Text: (C and D) Original gel images (C, two pairs of samples) and quantification (D) of cleaved caspase-3 protein levels in the cerebral cortex, hippocampus, and striatum from MCAO mice treated with α2δ-1Tat peptide or control peptide (n=8 mice per group). Data are shown as means±SEM. *p<0.05 compared with the sham group. #p<0.05 compared with MCAO+vehicle group or control peptide group in the same brain region (repeated measures ANOVA for panel B; paired Student's t-test for panel D).

[3] = tested on: anesthetized rats; assay: PVN microinjection and recording of RSNA and ABP (Ang II); format: in vivo, rat
Protocol: PVN microinjection and recording of renal sympathetic nerve activity: Rats were anesthetized with a mixture of α-chloralose (60 mg/kg, i.p.) and urethane (800 mg/kg, i.p.). A retroperitoneal incision was made, and a branch of the left renal postganglionic sympathetic nerve was isolated under a surgical microscope. The renal sympathetic nerve was cut distally to ensure that afferent nerve activity was not recorded. The renal sympathetic nerve activity (RSNA), arterial blood pressure (ABP), and heart rate (HR) were recorded using a 1401-PLUS analog-to-digital converter and Spike2 system (Cambridge Electronic Design, Cambridge, UK). A microinjection pipette (tip diameter, 20-30 μm) was advanced into the PVN according to the following stereotactic coordinates: 1.6-2.0 mm caudal to the bregma, 0.5 mm lateral to the midline, and 7.0-7.5 mm ventral to the dura. The microinjection was done using a calibrated microinjection system (Nanoject II; Drummond Scientific) and monitored using a surgical microscope as described previously (Li and Pan, 2006, 2007; Qiao et al., 2017). Ang II (200 μmol/L, 50 nl) was microinjected into the PVN to observe the change in RSNA and ABP in the absence or presence of α2δ-1Tat peptide (100 μmol/L, 50 nl) or control peptide (100 μmol/L, 50 nl). The microinjections were separated by 10- to 15-min intervals to allow recovery of the response. To determine the location of the injection site and diffusion of the drugs in the PVN, 5% rhodamine-labeled fluorescent microspheres (0.04 μm; Molecular Probes) were included in the injection solution (Li and Pan, 2006, 2007; Qiao et al., 2017).

[4] = tested on: rats treated with the Cacna2d1 vector; assay: Withdrawal thresholds in rats overexpressing Cacna2d1 (lentiviral vector); format: in vivo, rat; details: for pain hypersensitivity induced by Cacna2d1 overexpression (tactile and pressure withdrawal thresholds): Cacna2d1 vector rats, AP5, peptide, gabapentin intrathecal, memantine systemic
[5] = molecular target: T1, presynaptic NMDARs of spinal dorsal horn neurons (Rattus norvegicus, UniProt P35439+Q00959+Q00960); assay: Spinal cord slice recordings, morphine-treated rats; format: cell-based; details: AP5 50 μM, gabapentin 100 μM
T1 construct: from tissue; host or cells: rat lumbar spinal cord slices (lamina II neurons) and synaptosomes made from them
Protocol: Spinal cord slice preparation and electrophysiological recordings: The lumbar spinal cord was rapidly removed through laminectomy from the animals anesthetized with isoflurane. […] The spinal cord tissue was then placed in a shallow groove formed in an agar block and glued onto the stage of a vibratome (Leica, Germany).
All signals were recorded using an amplifier (MultiClamp700B; Axon Instruments Inc., Union City, Calif.), filtered at 1-2 kHz, and digitized at 10 kHz.

[6] = molecular target: presynaptic NMDARs of spinal lamina II neurons (Rattus norvegicus, UniProt P35439+Q00959+Q00960)
[7] = paclitaxel-treated rats, AP5 50 μM, pregabalin 20 μM, peptides 1 μM
[8] = vehicle-treated rats, AP5 50 μM, pregabalin 20 μM, peptides 1 μM

presynaptic NMDARs of spinal lamina II neurons, sequence (Q00959 20-1464 limits assumed, other chains not shown): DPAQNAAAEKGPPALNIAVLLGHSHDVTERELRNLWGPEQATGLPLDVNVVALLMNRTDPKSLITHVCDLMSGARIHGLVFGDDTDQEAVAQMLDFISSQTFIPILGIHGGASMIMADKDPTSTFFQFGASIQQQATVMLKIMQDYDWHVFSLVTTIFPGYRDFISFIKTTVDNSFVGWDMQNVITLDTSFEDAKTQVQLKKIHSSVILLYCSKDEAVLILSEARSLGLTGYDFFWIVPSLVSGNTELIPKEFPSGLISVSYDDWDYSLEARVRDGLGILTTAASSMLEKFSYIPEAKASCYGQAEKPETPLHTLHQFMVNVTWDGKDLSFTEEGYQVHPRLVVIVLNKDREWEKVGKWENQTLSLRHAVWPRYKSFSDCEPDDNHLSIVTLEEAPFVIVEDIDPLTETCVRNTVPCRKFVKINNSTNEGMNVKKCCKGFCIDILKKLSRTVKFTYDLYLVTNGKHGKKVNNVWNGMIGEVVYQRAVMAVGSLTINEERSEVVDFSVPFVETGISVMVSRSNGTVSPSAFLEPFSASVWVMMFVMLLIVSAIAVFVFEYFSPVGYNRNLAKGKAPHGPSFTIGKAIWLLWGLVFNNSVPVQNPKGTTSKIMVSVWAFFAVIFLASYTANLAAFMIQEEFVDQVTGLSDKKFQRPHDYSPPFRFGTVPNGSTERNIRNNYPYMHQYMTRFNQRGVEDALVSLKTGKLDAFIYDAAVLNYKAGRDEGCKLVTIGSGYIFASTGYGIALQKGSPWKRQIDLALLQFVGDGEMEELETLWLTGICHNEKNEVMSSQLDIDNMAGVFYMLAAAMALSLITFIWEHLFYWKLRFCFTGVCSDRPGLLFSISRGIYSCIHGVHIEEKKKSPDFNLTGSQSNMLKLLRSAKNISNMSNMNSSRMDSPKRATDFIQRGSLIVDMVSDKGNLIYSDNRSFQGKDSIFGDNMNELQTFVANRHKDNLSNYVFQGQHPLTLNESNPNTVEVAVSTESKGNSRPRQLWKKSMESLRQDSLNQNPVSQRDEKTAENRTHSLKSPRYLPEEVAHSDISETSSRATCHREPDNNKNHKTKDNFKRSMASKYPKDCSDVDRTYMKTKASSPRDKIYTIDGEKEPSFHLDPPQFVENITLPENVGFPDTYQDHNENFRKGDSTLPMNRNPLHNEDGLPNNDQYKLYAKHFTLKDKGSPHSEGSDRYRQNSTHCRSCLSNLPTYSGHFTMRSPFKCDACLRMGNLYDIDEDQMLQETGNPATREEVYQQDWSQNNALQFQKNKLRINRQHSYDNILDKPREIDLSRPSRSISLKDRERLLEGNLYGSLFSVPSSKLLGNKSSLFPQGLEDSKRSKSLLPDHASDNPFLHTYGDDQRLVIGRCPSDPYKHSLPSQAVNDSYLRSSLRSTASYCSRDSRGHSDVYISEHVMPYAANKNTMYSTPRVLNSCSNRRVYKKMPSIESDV
presynaptic NMDARs of spinal lamina II neurons, sequence (Q00960 27-1482, other chains not shown): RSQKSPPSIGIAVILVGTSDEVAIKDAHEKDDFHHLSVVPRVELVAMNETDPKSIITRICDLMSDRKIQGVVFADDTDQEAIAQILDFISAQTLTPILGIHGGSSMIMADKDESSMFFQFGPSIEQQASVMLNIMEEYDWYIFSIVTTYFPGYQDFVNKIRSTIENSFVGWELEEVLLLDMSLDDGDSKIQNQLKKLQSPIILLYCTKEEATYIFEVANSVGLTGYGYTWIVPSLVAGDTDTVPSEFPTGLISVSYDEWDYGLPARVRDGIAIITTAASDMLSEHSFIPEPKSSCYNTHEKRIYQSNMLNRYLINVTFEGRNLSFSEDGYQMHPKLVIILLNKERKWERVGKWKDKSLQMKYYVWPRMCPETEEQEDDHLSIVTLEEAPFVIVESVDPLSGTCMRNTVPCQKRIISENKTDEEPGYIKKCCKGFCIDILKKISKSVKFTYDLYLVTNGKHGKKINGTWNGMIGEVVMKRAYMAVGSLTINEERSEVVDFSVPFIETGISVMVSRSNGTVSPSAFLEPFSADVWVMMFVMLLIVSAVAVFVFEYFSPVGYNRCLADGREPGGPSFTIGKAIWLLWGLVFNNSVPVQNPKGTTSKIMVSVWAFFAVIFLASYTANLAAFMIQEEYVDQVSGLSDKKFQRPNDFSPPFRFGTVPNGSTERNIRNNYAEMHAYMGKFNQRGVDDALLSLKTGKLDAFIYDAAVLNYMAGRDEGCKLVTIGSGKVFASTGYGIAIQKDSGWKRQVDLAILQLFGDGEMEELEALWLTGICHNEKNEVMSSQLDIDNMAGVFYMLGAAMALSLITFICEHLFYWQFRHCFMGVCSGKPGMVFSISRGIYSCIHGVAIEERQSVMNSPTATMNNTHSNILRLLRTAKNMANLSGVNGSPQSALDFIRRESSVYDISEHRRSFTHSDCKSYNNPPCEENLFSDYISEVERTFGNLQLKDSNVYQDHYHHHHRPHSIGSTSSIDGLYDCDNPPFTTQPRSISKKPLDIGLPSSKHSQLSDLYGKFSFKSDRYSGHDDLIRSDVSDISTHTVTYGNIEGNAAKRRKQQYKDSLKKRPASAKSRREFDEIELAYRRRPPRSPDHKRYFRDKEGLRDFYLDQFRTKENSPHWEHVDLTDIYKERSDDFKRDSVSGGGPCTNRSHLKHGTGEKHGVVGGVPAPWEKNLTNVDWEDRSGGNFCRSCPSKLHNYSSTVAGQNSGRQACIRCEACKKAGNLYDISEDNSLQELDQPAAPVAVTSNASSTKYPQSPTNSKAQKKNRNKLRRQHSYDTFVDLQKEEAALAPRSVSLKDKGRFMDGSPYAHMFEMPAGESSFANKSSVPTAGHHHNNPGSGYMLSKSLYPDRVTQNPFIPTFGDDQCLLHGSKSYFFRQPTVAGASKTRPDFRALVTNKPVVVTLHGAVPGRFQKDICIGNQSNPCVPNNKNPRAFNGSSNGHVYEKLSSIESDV

| Molecule | brain infarct volume [1] | neurological deficit score [1] | MCAO-induced apoptotic signaling (cleaved caspase-3) [2] | RSNA and mean ABP ([3]; Ang II 200 μmol/L, 50 nl into the PVN) | pain hypersensitivity induced by Cacna2d1 overexpression (tactile and pressure withdrawal thresholds) [4] | pain hypersensitivity induced by Cacna2d1 overexpression (tactile and pressure withdrawal thresholds) ([4]; listed as a2d-1Tat peptide) | withdrawal thresholds in rats treated with the control vector ([4]; control vector rats, intrathecal injection) | ABP and RSNA responses to Ang II after prior peptide microinjection into the PVN ([3]; peptides 100 μmol/L, 50 nl) | frequency of mEPSCs in dorsal horn neurons ([5]; peptide 1 μM for 60 min) | amplitude of monosynaptic evoked EPSCs ([5]; peptides 1 μM for 60 min) | reduced PPR of evoked EPSCs ([6]; paclitaxel-treated rats) | increased amplitude of evoked monosynaptic EPSCs [6, 7] | increased frequency of mEPSCs of lamina II neurons [6, 7] | PPR of evoked EPSCs ([6]; vehicle-treated rats) | amplitude of evoked monosynaptic EPSCs [6, 8] | frequency of mEPSCs of lamina II neurons [6, 8] |
| --- | --- | --- | --- | --- | --- | --- | --- | --- | --- | --- | --- | --- | --- | --- | --- | --- |
| NCC1(CC(=O)O)CCCCC1 [gabapentin] | much smaller | significantly improved | suppresses |  |  |  |  |  |  |  |  |  |  |  |  |  |
| Ang II: angiotensin II, obtained from Sigma (DRVYIHPF; Angiotensin-2; UniProt P01019 25-32, looked up) |  |  |  | significantly increased |  |  |  |  |  |  |  |  |  |  |  |  |
| YGRKKRRQRRRVSGLNPSLWSIFGLQFILLWLVSGSRHYLW (a2d1 peptide) [α2δ-1Tat peptide] | much less | significantly reduced | suppresses |  | attenuates | similarly reversed | had no effect | failed to significantly increase | significantly reduced | normalized | fully reversed | completely reversed | completely normalized | had no effect | did not affect | neither incubation with α2δ-1Tat peptide nor bath application of AP5 had any effect |
